According to publication PMC3608532, “Characterization of a Single-Chain Variable Fragment Recognizing a Linear Epitope of Aβ: A Biotechnical Tool for Studies on Alzheimer’s Disease?” (PLoS ONE, 2013):

What was measured:
[1] = system: Aβ plaques in brain cryosections of Tg2576 mice; assay: Ex vivo staining of plaques in mouse brain slices; conditions: 9 or 12 months old Tg2576 mice and wildtype control, 20 µm sections; scFv-IC16 400 nM, 6E10 33 nM, 1-11-3 1:200; fluorescence microscopy
Procedure: Deep frozen horizontal brain cryosections (20 µm thickness) from 9 or 12 months old Tg2576 mice and the respective wildtype control were dried in ambient air for 15 min, and then fixed in ice-cold 4% (w/v) paraformaldehyde for 20 min. Incubation with 70% formic acid for 5 min was performed to enhance immunoreactivity. Sections were permeabilized with 1% Triton X-100 in TBS for 10 min, followed by blocking with Mouse on mouse (M.O.M.) Basic Kit (Vector Laboratories) in TBS-Triton (1%, v/v) for 30 min. Primary antibodies were diluted in 1% BSA/TBS-Triton (working concentration of ScFv: 400 nM, 6E10∶33 nM, 1-11-3 (Covance, USA) in 1∶200 dilution) and probed on the sections for 1 h, incubating at room temperature. […] For double staining, two secondary antibodies (goat anti mouse-Alexa488 and goat anti rabbit-Alexa-568 were mixed directly (working concentration of goat anti rabbit-Alexa568∶1.300). After 1 min of incubation with 0.5 µg/ml DAPI, the sections were coverslip-mounted with Aqua Poly/Mont (Polysciences Inc, Worrington, PA, USA). Sections were examined under a fluorescence microscope (Leica LMD6000 (Leica, Solms, Germany). Excitation Range: UV; blue; green. Excitation Filter: Bp 420/30; Bp 495/15; Bp 570/20) with camera (Leica DFC 310 FX). Images were processed with LAS software (Leica Application Suite, V.4.0.0) and ImageJ (1.45 s).

[2] = biological target: Aβ(3-8); assay: SPR binding kinetics to immobilized Aβ(3-8)
Procedure: Binding kinetics were determined by SPR using a Biacore™ X (GE Healthcare, UK). Synthetic Aβ peptides were dissolved in 10 mM NaAc, pH 4.0. The CM5 sensor chip surface (GE Healthcare, UK) was activated using N-ethyl-N′-3 […] carbodiimide (EDC) and N-hydroxysuccinimide (NHS) chemistry followed by 2-(2-pyridinyldithio)ethaneamine hydrochloride (PDEA), in order to introduce a reactive thiol group. Aβ was coupled via the C-terminal cysteine to the chip at a flow rate of 5 µl/min, and the remaining active groups were blocked by injecting cysteine. The immobilization procedure was performed according to manufacturer’s recommendation. All kinetic analyses were performed at a flow rate of 20 µl/min in PBS. Varying concentrations of scFv-IC16 (10 to 5000 nM) and IC16 (10 to 1000 nM) were injected. […] When required, the surface was regenerated by injecting 20 µl 50 mM glycine, pH 11.0. The data evaluation was performed using Biaevaluation Software 4.1.1. ScFv-IC16 data were fitted according to the Langmuir 1∶1 binding model, whereas IC16 data were fitted according to the bivalent binding model. Standard errors of equilibrium dissociation constants (KD) were calculated using standard errors of the corresponding association and dissociation rate constants.

[3] = SPR Biacore X, CM5 chip, PBS, 25°C, global fit, scFv-IC16 Langmuir 1:1 model, IC16 bivalent model, ± standard error, SEM

Kd ([2]; SPR Biacore X, CM5 chip, PBS, 25°C, global fit, scFv-IC16 Langmuir 1:1 model, IC16 bivalent model): 5.25 µM
k off [2, 3]: 43.9±0.3×10^−3 s^-1
k on [2, 3]: 8.36±0.5×10^3 M^-1 s^-1
Kd ([2]; SPR, A2 of Aβ truncated): > 5 µM
Substance: scFv-IC16: single-chain variable fragment (VH-(Gly4Ser)3-VL, His6- and Myc-tag) derived from Aβ binding monoclonal antibody IC16, expressed in E. coli
plaque staining in brain cryosections [1]: detect plaques specifically
